Reference: patent publication US5216005A, “Immunosuppressive analogues and derivatives of succinylacetone” (priority 1990, dated 1993)

Legend:
Format in all cases: cell-based
[1] = system: IL-2 (human lymphoid cells); assay: IL-2 production in primary mixed lymphocyte reaction (HT-2 cell assay); design: IL-2: unit not given here; conditions: for IL-2: 1° MLR
Description: Derivatives of succinylacetone were tested for immunosuppressive activity in several different types of assay systems. The first consisted of measuring the amounts of interleukin-2 (IL-2), and interferon-γ (IFN-γ) produced by human lymphoid cells in a mixed lymphocyte reaction. Low levels of these molecules in the reaction mixture indicate that the immune system is being suppressed by the subject succinylacetone derivatives. IL-2 was measured by enumerating the number of viable HT-2 cells found after an 18-24 hours period. HT-2 cells are a mouse IL-2 dependent cell line which die in the absence of IL-2. The assay is described by Gillis et al., J. of Immunol. […] The mixed lymphocyte reaction assay can be carried out by techniques well known to those skilled in the art. L. Hudson and F. C. Huy, Practical Immunology, p. […] Briefly this consists of isolating lymphocytes from human peripheral blood by standard density gradient centrifugation techniques from two separate individuals. Approximately 2×10^5 lymphocytes of each individual are combined to yield a total of 4×10^5 lymphocytes per culture. All procedures are carried out under sterile conditions, and the lymphocytes are isolated and kept in physiologically compatible solutions. To the mixture of lymphocytes is added a desired amount of an appropriate succinylacetone derivative, and after different times an aliquot of the mixture is removed and assayed for IL-2 or IFN-γ, or ^[…] is measured.

[2] = system: IFN-γ (human lymphoid cells); assay: IFN-γ production in primary mixed lymphocyte reaction (WISH cells/EMC virus assay); design: IFN-γ: unit not given here; conditions: for IFN-γ: 1° MLR
Description: Derivatives of succinylacetone were tested for immunosuppressive activity in several different types of assay systems. The first consisted of measuring the amounts of interleukin-2 (IL-2), and interferon-γ (IFN-γ) produced by human lymphoid cells in a mixed lymphocyte reaction. Low levels of these molecules in the reaction mixture indicate that the immune system is being suppressed by the subject succinylacetone derivatives.
IFN-γ was determined by measuring the amount of protection conveyed on human WISH cells against the cytopathic effects of encephalomyocarditis virus (EMC). This assay is described by I. A. Braude, J. of Immunol. Methods 63:237 (1983). Both publications are hereby incorporated by reference.
(§1) The mixed lymphocyte reaction assay can be carried out by techniques well known to those skilled in the art. L. Hudson and F. C. Huy, Practical Immunology, p. 260, Blackwell Scientific Publications (1976). Briefly this consists of isolating lymphocytes from human peripheral blood by standard density gradient centrifugation techniques from two separate individuals. Approximately 2×10^5 lymphocytes of each individual are combined to yield a total of 4×10^5 lymphocytes per culture. All procedures are carried out under sterile conditions, and the lymphocytes are isolated and kept in physiologically compatible solutions. To the mixture of lymphocytes is added a desired amount of an appropriate succinylacetone derivative, and after different times an aliquot of the mixture is removed and assayed for IL-2 or IFN-γ, or ^3 H-T is measured.

human lymphocytes [3] = assay: tritiated thymidine uptake in primary mixed lymphocyte reaction; conditions: for CPM ± SD: 1° MLR
From the text: The in vitro mixed lymphocyte assay described below is presently employed in the clinical setting as an indicator of histocompatibility, and is premised on the transformation of resting genetically dissimilar lymphocytes into cells which synthesize DNA and undergo proliferation.
as §1
As mentioned above, one measure of an immune response as reflected in a mixed lymphocyte assay is the stimulation of DNA synthesis, and a concomitant increase in cell number. Thus, to further ascertain the immunosuppressive activity of succinylacetonyl-proline-NH-PEG, its effect on inhibition of thymocyte growth, as detected by uptake of tritiated thymidine, was assayed.

human lymphocytes [4] = assay: phytohemagglutinin (PHA) stimulation assay, tritiated thymidine uptake; conditions: for IC50: Homo sapiens, Lymphocyte, read-out: concentration causing 50% inhibition of PHA stimulation
Description: A second assay widely used to study immune responsiveness is mitogenic stimulation of thymocytes with antigenic substances of plant origin. The most widely used plant molecule is phytohemagglutinin (PHA).
The procedure for carrying out the phytohaemagglutinin assay is also well known to those skilled in the art. Briefly, it consists of isolating human lymphocytes as described above, and incubating about 1.0×10^6 cells per ml in a suitable physiological solution with phytohaemagglutinin, and the appropriate concentration of succinylacetone-proline-NH-PEG. Tritiated thymidine is added 48 hours later and allowed to incubate for twenty-four hours before the cells are counted.

`COC(=O)CCC(=O)CC(C)=O` [Succinylacetone Methyl Ester, methyl 4-6-dioxoheptanoate] gave an IL-2 ([1]; Exp I, 3 μM) of 41, an IL-2 ([1]; Exp I, 9 μM) of 28 and an IL-2 ([1]; Exp I, 27 μM) of 25. For the same molecule, the IL-2 ([1]; Exp I, 81 μM) was 24, the IL-2 ([1]; Exp I, 244 μM) was 19 and the IL-2 ([1]; Exp I, 733 μM) was 14. For the same molecule, the IL-2 ([1]; Exp I, 2.2 mM) was less than 6, the IL-2 ([1]; Exp I, 6.7 mM) was less than 6 and the IL-2 ([1]; Exp I, 20 mM) was less than 6. For the same molecule, the IL-2 ([1]; Exp II, 3 μM) was 34, the IL-2 ([1]; Exp II, 9 μM) was 38 and the IL-2 ([1]; Exp II, 27 μM) was 34. For the same molecule, the IL-2 ([1]; Exp II, 81 μM) was 28, the IL-2 ([1]; Exp II, 244 μM) was 28 and the IL-2 ([1]; Exp II, 733 μM) was 23. The IL-2 ([1]; Exp II, 2.2 mM) was less than 8, the IL-2 ([1]; Exp II, 6.7 mM) was less than 8 and the IL-2 ([1]; Exp II, 20 mM) was less than 8. The IC50 ([1]; Homo sapiens, HT2, read-out: concentration that inhibits IL-2 production by about 50%) was roughly 733 µM, the IFN-γ ([2]; Exp I, 3 μM) was 2558 and the IFN-γ ([2]; Exp I, 9 μM) was 1860. It also gave an IFN-γ ([2]; Exp I, 27 μM) of 2713, an IFN-γ ([2]; Exp I, 81 μM) of 1628 and an IFN-γ ([2]; Exp I, 244 μM) of 1575. The IFN-γ ([2]; Exp I, 733 μM) was 1890, the IFN-γ ([2]; Exp I, 2.2 mM) was 788 and the IFN-γ ([2]; Exp I, 6.7 mM) was less than 630. The IFN-γ ([2]; Exp I, 20 mM) was less than 630, the IFN-γ ([2]; Exp II, 3 μM) was 1313 and the IFN-γ ([2]; Exp II, 9 μM) was 1000. It also gave an IFN-γ ([2]; Exp II, 27 μM) of 1032, an IFN-γ ([2]; Exp II, 81 μM) of 1094 and an IFN-γ ([2]; Exp II, 244 μM) of 938. The IFN-γ ([2]; Exp II, 733 μM) was 688, the IFN-γ ([2]; Exp II, 2.2 mM) was less than 375 and the IFN-γ ([2]; Exp II, 6.7 mM) was less than 375. For the same molecule, the IFN-γ ([2]; Exp II, 20 mM) was less than 375, the IC50 ([2]; Homo sapiens, Lymphocyte, primary MLR, read-out: concentration that inhibits IFN-γ production by about 50%) was roughly 733 µM and the “CPM ± SD” value (human lymphocytes [3]; Exp I, 3 μM) was 81740 CPM. The “CPM ± SD” value (human lymphocytes [3]; Exp I, 9 μM) was 87101 CPM, the “CPM ± SD” value (human lymphocytes [3]; Exp I, 27 μM) was 75211 CPM and the “CPM ± SD” value (human lymphocytes [3]; Exp I, 81 μM) was 80182 CPM. The “CPM ± SD” value (human lymphocytes [3]; Exp I, 244 μM) was 66159 CPM, the “CPM ± SD” value (human lymphocytes [3]; Exp I, 733 μM) was 30535 CPM and the “CPM ± SD” value (human lymphocytes [3]; Exp I, 2.2 mM) was 3185 CPM. For the same molecule, the “CPM ± SD” value (human lymphocytes [3]; Exp I, 6.7 mM) was 89 CPM, the “CPM ± SD” value (human lymphocytes [3]; Exp I, 20 mM) was 164 CPM and the “CPM ± SD” value (human lymphocytes [3]; Exp II, 3 μM) was 114428 CPM. For the same molecule, the “CPM ± SD” value (human lymphocytes [3]; Exp II, 9 μM) was 110425 CPM, the “CPM ± SD” value (human lymphocytes [3]; Exp II, 27 μM) was 97879 CPM and the “CPM ± SD” value (human lymphocytes [3]; Exp II, 81 μM) was 87595 CPM. For the same molecule, the “CPM ± SD” value (human lymphocytes [3]; Exp II, 244 μM) was 78306 CPM, the “CPM ± SD” value (human lymphocytes [3]; Exp II, 733 μM) was 40700 CPM and the “CPM ± SD” value (human lymphocytes [3]; Exp II, 2.2 mM) was 33497 CPM. The “CPM ± SD” value (human lymphocytes [3]; Exp II, 6.7 mM) was 126 CPM, the “CPM ± SD” value (human lymphocytes [3]; Exp II, 20 mM) was 90 CPM and the IC50 (human lymphocytes [3]; Homo sapiens, Lymphocyte, read-out: concentration for 50% reduction in thymidine uptake) was roughly 733 µM. The IC50 (human lymphocytes [4]; one assay) was 103 to 309 µM, the IC50 (human lymphocytes [4]; second assay) was roughly 103 µM and the “PHA stimulation, cpm ± SD” value (human lymphocytes [4]; first experiment, 3.8 μM) was 20292 cpm. For the same molecule, the “PHA stimulation, cpm ± SD” value (human lymphocytes [4]; first experiment, 11 μM) was 18100 cpm, the “PHA stimulation, cpm ± SD” value (human lymphocytes [4]; first experiment, 34 μM) was 16549 cpm and the “PHA stimulation, cpm ± SD” value (human lymphocytes [4]; first experiment, 103 μM) was 17595 cpm. For the same molecule, the “PHA stimulation, cpm ± SD” value (human lymphocytes [4]; first experiment, 309 μM) was 5927 cpm, the “PHA stimulation, cpm ± SD” value (human lymphocytes [4]; first experiment, 962 μM) was 565 cpm and the “PHA stimulation, cpm ± SD” value (human lymphocytes [4]; first experiment, 2.8 mM) was 126 cpm. The “PHA stimulation, cpm ± SD” value (human lymphocytes [4]; first experiment, 25 mM) was 113 cpm, the “PHA stimulation, cpm ± SD” value (human lymphocytes [4]; first experiment, 83 mM) was 79 cpm and the “PHA stimulation, cpm ± SD” value (human lymphocytes [4]; second experiment, 3.8 μM) was 37936 cpm. The “PHA stimulation, cpm ± SD” value (human lymphocytes [4]; second experiment, 11 μM) was 28645 cpm, the “PHA stimulation, cpm ± SD” value (human lymphocytes [4]; second experiment, 34 μM) was 28614 cpm and the “PHA stimulation, cpm ± SD” value (human lymphocytes [4]; second experiment, 103 μM) was 17733 cpm. The “PHA stimulation, cpm ± SD” value (human lymphocytes [4]; second experiment, 309 μM) was 5292 cpm, the “PHA stimulation, cpm ± SD” value (human lymphocytes [4]; second experiment, 962 μM) was 6949 cpm and the “PHA stimulation, cpm ± SD” value (human lymphocytes [4]; second experiment, 2.8 mM) was 65 cpm. The “PHA stimulation, cpm ± SD” value (human lymphocytes [4]; second experiment, 25 mM) was 112 cpm and the “PHA stimulation, cpm ± SD” value (human lymphocytes [4]; second experiment, 83 mM) was 107 cpm.
